Measured values: ChEMBL document CHEMBL1201862, “PubChem BioAssay data set” (2004)
Active and inactive are the calls of the source.

What was measured:
[1] = target: T1, High affinity choline transporter 1 (Homo sapiens, UniProt Q9GZV3); experiment: human choline transporter blockers, potency – cell-based, 5-point CRC, membrane potential dye, dose response (AID 504840); format: functional
T1 sequence (Q9GZV3 whole entry): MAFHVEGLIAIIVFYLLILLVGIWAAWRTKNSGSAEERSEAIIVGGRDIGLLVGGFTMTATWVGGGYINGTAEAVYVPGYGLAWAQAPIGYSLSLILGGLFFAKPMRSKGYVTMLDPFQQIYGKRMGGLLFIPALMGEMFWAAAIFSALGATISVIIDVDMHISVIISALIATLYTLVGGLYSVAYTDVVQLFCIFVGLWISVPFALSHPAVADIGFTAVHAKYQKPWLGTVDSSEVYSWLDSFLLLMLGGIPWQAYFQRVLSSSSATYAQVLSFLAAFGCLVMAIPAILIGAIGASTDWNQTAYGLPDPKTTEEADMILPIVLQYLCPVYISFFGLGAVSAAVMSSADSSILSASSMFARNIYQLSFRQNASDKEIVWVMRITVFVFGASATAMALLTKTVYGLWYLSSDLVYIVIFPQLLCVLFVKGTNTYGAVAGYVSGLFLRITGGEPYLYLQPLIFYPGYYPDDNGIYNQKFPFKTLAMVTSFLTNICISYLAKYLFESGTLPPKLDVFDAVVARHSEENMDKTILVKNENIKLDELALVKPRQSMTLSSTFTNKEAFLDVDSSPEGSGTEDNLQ

[2] = target: T1, High affinity choline transporter 1; experiment: human choline transporter blockers, potency – cell-based, 10-point CRC, membrane potential dye, dose response (AID 588401); format: functional;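 also: membrane potential dye fluorescence of choline-evoked depolarization via CHT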
P388/ADR = experiment: cells; format: functional; conditions: Mus musculus
SN12K1 = experiment: cells; format: functional; conditions: Homo sapiens
P388 = experiment: cells; format: functional; conditions: Mus musculus
[3] = target: T2, Sentrin-specific protease 8 (Homo sapiens, UniProt Q96LD8); experiment: inhibition of human SENP8 cleavage activity – biochemical, luminescence, SAR follow-up (AID 504501); format: functional
T2 sequence (Q96LD8 whole entry): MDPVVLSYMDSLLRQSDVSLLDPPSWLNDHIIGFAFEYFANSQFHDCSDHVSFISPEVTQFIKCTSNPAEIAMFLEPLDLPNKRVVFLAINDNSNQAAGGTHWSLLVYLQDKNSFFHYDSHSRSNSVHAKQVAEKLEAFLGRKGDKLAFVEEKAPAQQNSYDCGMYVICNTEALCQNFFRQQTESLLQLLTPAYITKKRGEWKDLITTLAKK

Caspase-3 = target: T3, Caspase-3 (Homo sapiens, UniProt P42574); experiment: SAR Analysis of small molecule inhibitors of Sentrin-specific proteases (SENPs) using a Caspase-3 Selectivity assay. [Related pubchem assays (depositor defined):AID2540, AID2599, AID434973, AID489001]; format: functional
T3 sequence (P42574 whole entry): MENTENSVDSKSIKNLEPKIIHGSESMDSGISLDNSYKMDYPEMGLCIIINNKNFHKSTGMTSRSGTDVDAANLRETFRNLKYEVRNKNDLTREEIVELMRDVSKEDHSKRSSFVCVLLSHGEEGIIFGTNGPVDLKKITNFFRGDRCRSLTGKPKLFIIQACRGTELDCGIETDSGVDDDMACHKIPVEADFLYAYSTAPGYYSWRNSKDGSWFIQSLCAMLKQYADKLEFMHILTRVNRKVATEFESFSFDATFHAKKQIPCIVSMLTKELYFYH

[4] = target: T4, Sentrin-specific protease 6 (Homo sapiens, UniProt Q9GZR1); experiment: SAR Analysis of small molecule inhibitors of Sentrin-specific protease 6 (SENP6) using a Luminescent assay. [Related pubchem assays (depositor defined):AID2582, AID2599]; format: functional
T4 sequence (Q9GZR1 whole entry): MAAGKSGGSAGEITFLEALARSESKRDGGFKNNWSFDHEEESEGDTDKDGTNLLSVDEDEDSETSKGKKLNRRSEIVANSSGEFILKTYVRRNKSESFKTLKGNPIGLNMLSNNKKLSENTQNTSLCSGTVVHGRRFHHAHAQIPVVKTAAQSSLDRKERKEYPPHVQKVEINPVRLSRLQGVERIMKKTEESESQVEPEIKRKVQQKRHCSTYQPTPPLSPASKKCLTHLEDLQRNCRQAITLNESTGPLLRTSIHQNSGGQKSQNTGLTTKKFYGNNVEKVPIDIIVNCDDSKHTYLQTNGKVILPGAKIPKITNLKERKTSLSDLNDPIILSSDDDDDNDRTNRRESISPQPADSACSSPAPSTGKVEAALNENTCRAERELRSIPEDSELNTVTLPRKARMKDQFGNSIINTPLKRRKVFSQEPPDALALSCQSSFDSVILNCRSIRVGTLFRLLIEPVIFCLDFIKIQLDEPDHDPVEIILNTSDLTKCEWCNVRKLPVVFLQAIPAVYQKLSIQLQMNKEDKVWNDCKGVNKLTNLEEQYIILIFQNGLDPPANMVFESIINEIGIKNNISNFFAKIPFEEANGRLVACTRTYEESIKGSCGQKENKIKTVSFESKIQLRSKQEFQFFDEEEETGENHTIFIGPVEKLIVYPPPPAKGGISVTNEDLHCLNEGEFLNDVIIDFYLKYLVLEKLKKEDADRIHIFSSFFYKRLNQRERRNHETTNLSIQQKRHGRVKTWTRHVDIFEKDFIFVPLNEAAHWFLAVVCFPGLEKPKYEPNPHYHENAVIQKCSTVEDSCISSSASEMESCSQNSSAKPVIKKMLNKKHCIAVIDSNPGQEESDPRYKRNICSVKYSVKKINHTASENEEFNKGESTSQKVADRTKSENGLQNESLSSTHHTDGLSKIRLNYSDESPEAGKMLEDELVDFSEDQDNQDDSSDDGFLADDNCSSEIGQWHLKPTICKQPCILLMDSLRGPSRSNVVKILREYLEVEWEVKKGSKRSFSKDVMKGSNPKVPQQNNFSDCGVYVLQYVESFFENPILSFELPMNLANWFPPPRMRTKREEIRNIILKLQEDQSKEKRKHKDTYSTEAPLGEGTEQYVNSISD

[5] = target: T5, Sentrin-specific protease 7 (Homo sapiens, UniProt Q9BQF6); experiment: inhibition of human SENP7 cleavage activity – biochemical, luminescence, SAR follow-up (AID 504497); format: functional
T5 sequence (Q9BQF6 whole entry): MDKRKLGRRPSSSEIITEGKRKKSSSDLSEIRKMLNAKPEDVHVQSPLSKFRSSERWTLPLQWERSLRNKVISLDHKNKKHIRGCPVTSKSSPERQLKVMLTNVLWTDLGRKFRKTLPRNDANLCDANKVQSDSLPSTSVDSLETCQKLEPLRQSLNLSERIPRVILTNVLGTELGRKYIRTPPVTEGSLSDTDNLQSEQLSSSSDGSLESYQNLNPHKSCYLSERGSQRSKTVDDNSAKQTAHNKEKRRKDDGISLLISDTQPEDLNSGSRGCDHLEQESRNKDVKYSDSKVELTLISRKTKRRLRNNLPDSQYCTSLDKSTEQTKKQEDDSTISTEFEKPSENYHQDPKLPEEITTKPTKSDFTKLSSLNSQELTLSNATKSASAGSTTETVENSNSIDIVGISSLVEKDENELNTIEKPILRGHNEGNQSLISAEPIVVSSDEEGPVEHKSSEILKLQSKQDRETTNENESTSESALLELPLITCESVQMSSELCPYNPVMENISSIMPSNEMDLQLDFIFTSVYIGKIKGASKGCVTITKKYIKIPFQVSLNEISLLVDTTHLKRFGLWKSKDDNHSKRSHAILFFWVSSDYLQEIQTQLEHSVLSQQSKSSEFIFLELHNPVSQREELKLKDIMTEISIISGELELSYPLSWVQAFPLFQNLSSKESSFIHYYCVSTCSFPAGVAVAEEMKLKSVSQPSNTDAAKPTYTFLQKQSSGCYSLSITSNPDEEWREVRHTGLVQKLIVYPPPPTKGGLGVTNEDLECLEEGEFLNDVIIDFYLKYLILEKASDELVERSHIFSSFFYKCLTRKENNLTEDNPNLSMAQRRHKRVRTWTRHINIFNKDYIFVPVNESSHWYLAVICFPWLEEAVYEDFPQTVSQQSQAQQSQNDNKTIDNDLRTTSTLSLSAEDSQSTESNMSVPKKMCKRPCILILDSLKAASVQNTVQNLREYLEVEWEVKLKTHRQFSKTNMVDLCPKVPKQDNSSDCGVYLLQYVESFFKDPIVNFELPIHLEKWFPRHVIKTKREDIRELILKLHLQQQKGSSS

BJ [6] = experiment: BJ-TERT fibroblast viability loss – cell-based, RAS-independent, luminescence, dose response (AID 1933); format: functional; conditions: Homo sapiens
BJ [7] = experiment: cells; format: functional, cell-based; conditions: Homo sapiens
[8] = target: Luciferin 4-monooxygenase (Photinus pyralis, UniProt P08659); experiment: inhibition of purified Photinus pyralis luciferase – biochemical, luminescence, dose response (AID 1891)
Luciferin 4-monooxygenase, sequence (P08659 whole entry): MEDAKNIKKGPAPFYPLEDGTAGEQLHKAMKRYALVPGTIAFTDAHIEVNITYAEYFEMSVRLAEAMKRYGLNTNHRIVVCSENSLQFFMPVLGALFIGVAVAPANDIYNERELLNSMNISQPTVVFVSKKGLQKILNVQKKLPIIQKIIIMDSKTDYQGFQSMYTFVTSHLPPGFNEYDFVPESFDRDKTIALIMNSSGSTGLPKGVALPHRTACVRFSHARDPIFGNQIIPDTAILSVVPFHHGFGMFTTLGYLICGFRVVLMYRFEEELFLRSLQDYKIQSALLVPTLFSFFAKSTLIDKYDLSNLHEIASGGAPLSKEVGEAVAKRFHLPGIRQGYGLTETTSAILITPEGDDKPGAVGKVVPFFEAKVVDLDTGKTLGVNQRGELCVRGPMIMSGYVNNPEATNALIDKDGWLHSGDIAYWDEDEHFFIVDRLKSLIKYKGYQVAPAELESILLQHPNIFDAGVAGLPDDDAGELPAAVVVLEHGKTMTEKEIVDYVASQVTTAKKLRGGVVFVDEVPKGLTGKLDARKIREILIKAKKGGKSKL

[9] = Luminescence Cell-Based Dose Confirmation HTS to Identify Inhibitors of Platelet Dense Granule Release. [Related pubchem assays: 1663 (Primary HTS), 1678 (Summary of Project)]; format: functional
BJ [10] = experiment: BJ-TERT-LT-ST fibroblast viability loss – cell-based, RAS-independent, luminescence, dose response (AID 1935); format: functional; conditions: Homo sapiens;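 also: BJ fibroblasts immortalized with TERT plus LT and ST oncogenes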
[11] = DRD fibroblast viability loss – cell-based, non-viral oncogenic, luminescence, dose response (AID 1934); format: functional; conditions: Homo sapiens
[12] = target: Heat shock protein HSP 90-alpha (Homo sapiens, UniProt P07900); format: functional, organism-based
HSP90 = HSP90 (Plasmodium falciparum 3D7, UniProt Q8IL32); format: functional, organism-based
HSP90, sequence (Q8IL32 whole entry): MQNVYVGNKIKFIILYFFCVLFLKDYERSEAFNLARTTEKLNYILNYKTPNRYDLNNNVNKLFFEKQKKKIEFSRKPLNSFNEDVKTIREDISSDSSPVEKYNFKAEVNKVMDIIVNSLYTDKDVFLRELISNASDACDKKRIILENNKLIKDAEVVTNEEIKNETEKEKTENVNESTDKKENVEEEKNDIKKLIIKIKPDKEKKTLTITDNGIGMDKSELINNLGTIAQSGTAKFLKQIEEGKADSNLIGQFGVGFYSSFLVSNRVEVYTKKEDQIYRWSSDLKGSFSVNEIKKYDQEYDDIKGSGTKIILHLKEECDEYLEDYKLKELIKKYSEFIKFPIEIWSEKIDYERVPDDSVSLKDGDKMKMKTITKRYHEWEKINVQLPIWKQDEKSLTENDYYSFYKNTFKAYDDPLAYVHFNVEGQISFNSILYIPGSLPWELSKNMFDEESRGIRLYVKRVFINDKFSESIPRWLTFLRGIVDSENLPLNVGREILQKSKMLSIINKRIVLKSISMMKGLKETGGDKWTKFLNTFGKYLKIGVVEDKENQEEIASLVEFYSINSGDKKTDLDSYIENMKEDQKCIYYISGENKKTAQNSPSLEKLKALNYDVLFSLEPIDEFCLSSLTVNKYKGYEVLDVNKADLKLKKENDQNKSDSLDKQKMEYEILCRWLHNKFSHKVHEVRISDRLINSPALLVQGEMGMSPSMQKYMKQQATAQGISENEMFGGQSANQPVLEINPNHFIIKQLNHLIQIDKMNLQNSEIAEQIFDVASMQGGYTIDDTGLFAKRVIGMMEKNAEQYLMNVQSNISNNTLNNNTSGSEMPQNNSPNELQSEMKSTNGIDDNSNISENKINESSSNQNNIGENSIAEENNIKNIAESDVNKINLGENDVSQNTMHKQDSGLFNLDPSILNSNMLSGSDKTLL

O=[N+]([O-])/C(C(=C(Cl)Cl)N1CCN(Cc2ccccc2)CC1)=C1\NCCN1Cc1ccc(Cl)nc1
IC50 [1]: 6.15 µM (active) | IC50 [2]: 5.39 µM (active)

Nc1ncnc2c1ncn2C1CCC(CO)O1 (configuration not stated)
GI50 (P388/ADR): 69.5 µM (inactive) | GI50 (SN12K1): > 62.4 µM (inactive) | GI50 (P388): 98.6 µM (inactive)

COc1cc(OC)cc(-c2noc(/C=C/c3ccccc3Cl)n2)c1
IC50 [3]: > 99 µM (inactive) | IC50 (Caspase-3): > 99 µM (inactive) | IC50 [4]: > 99 µM (inactive) | IC50 [5]: > 99 µM (inactive)

C(=C\c1nc2ccccc2[nH]1)/c1ccccc1
EC50 (BJ [6]): 6.89 µM (active) | EC50 (BJ [7]): 8.19 µM (active) | EC50 [8]: 0.949 µM (active) | EC50 [9]: 2.44 µM (active) | EC50 (BJ [10]): > 150 µM (inconclusive) | EC50 [11]: 6.84 µM (active) | AC50 [12]: 44 µM (active) | AC50 (HSP90): 106 µM (active)
